Reference: patent publication US8008303B2, “Biphenyl derivatives and their use in treating hepatitis C” (AstraZeneca AB, priority 2005, dated 2011)
Where two headings read alike, the source gives them in different places.

Assays:
[1] = test system: HCV replicon cells Huh 9B; experiment: HCV replicon assay (luciferase readout); format: cell-based
Outline: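 Compounds, made up at twice final strength (final DMSO 1%), were added to subgenomic replicon cells one day after plating. Incubation then ran 72 h at 37 °C, 5% CO2, without G418. Replication was quantified as firefly luciferase luminescence in lysed cells, with cytotoxicity assessed on a duplicate clear plate.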

[2] = test system: HCV replicon cells Huh 9B; format: cell-based
[3] = concentration reducing replicon level (luciferase activity) by 50% vs untreated cell control, 72 h incubation
[4] = concentration reducing total cell area by 50% relative to DMSO controls, methylene blue, absorbance 620 nm, 72 h incubation
[5] = Hepatitis C virus, 72 h, concentration reducing replicon level (luciferase activity) by 50% vs untreated cell control, 72 h incubation

SMILES	IC50 [1] [nM]	TD50 [2]	IC50 [1, 3] [nM]	TD50 [2, 4]	IC50 [1, 5] [nM]
Cc1ccc(C(=O)Nc2ccc(N3CCOCC3)cc2)cc1-c1ccc(C(=O)Nc2ccc(C(=O)N(C)C)cc2)cc1 [Example 70, 6-Methyl-biphenyl-3,4′-dicarboxylic acid 4′-[(4-dimethylcarbamoyl-phenyl)-amide] 3-[(4-morpholin-4-yl-phenyl)-amide]]	1000 to 5000	* (key: * < 50 μM; ** > 50 μM)	–	–	–
COc1ccc(C(=O)Nc2ccc(N3CCS(=O)(=O)CC3)cc2)cc1-c1ccc(C(=O)Nc2ccc(N3CCN(C)CC3)cc2)cc1 [Example 261, 6-Methoxy-biphenyl-3,4′-dicarboxylic acid 3-{[4-(4-(1,1-dioxo-1lambda*6*-thiomorpholin-4-yl)-phenyl]-amide} 4′-{[4-(4-methyl-piperazin-1-yl)-phenyl]-amide}]	1000 to 5000	* (key: * < 50 μM; ** > 50 μM)	–	–	–
COc1cccc(C(=O)Nc2ccc(-c3cc(C(=O)Nc4ccc(N5CCOCC5)cc4)ccc3C)cc2)c1 [Example 112, 4′-(3-Methoxy-benzoylamino)-6-methyl-biphenyl-3-carboxylic acid (4-morpholin-4-yl-phenyl)-amide]	–	–	1000 to 5000	* (* < 50 μM)	–
Cc1ccc(NC(=O)C2(C#N)CC2)cc1-c1ccc(C(=O)Nc2ccc(CN3CCS(=O)(=O)CC3)cc2)cc1 [Example 174, 5′-[(1-Cyano-cyclopropanecarbonyl)-amino]-2′-methyl-biphenyl-4-carboxylic acid [4-(1,1-dioxo-1lambda*6*-thiomorpholin-4-ylmethyl)-phenyl]-amide]	–	–	–	* (* < 50 μM)	1000 to 5000
Cc1ccc(C(=O)Nc2ccc(C(=O)N3CCOCC3)cc2)cc1-c1ccc(C(=O)Nc2ccc(CN3CCS(=O)(=O)CC3)cc2)cc1 [Example 140, 6-Methyl-biphenyl-3,4′-dicarboxylic acid 4′-{[4-(1,1-dioxo-1lambda*6*-thiomorpholin-4-ylmethyl)-phenyl]-amide} 3-{[4-(morpholine-4-carbonyl) -phenyl]-amide}]	1000 to 5000	* (key: * < 50 μM; ** > 50 μM)	–	–	–
O=C(Nc1ccc2[nH]ccc2c1)c1ccc(-c2cccc(C(=O)Nc3ccc(N4CCOCC4)cc3)c2)cc1 [Example 59, Biphenyl-3,4′-dicarboxylic acid 4′-[(1H-indol-5-yl)-amide] 3-[(4-morpholin-4-yl-phenyl)-amide]]	1000 to 5000	** (key: * < 50 μM; ** > 50 μM)	–	–	–
Cc1ccc(C(=O)Nc2ccc(N3CCOCC3)cc2)cc1-c1ccc(NC(=O)c2ccc(CN(C)C)cc2)cc1 [Example 117, 4′-(4-Dimethylaminomethyl-benzoylamino)-6-methyl-biphenyl-3-carboxylic acid (4-morpholin-4-yl-phenyl)-amide]	–	–	–	* (* < 50 μM)	1000 to 5000
Cc1ccc(CNc2ccc3cn[nH]c3c2)cc1-c1ccc(C(=O)Nc2ccc(CN3CCS(=O)(=O)CC3)cc2)cc1 [Example 197, 5′-[(1H-Indazol-6-ylamino)-methyl]-2′-methyl-biphenyl-4-carboxylic acid [4-(1,1-dioxo-1lambda*6*-thiomorpholin-4-ylmethyl)-phenyl]-amide]	–	–	–	** (** > 50 μM)	< 1000
Cc1ccc(C(=O)Nc2ccc(N3CCOCC3)cc2)cc1-c1ccc(C(=O)NCc2ccc(Cl)c(C(F)(F)F)c2)cc1 [Example 42, 6-Methyl-biphenyl-3,4′-dicarboxylic acid 4′-(4-chloro-3-trifluoromethyl-benzylamide) 3-[(4-morpholin-4-yl-phenyl)-amide]]	< 1000	** (key: * < 50 μM; ** > 50 μM)	–	–	–
Cc1ccc(C(=O)NCCC(C)C)cc1-c1ccc(C(=O)Nc2ccc(CN3CCS(=O)(=O)CC3)cc2)cc1 [Example 122, 6-Methyl-biphenyl-3,4′-dicarboxylic acid 4′-{[4-(1,1-dioxo-1lambda*6*-thiomorpholin-4-ylmethyl)-phenyl]-amide} 3-[(3-methyl-butyl)-amide]]	< 1000	* (key: * < 50 μM; ** > 50 μM)	–	–	–
O=C(Nc1ccc(CN2CCS(=O)(=O)CC2)cc1)c1ccc(-c2cccc(NC(=O)C3CC3)c2)cc1 [Example 168, 3′-(Cyclopropanecarbonyl-amino)-biphenyl-4-carboxylic acid [4-(1,1-dioxo-1lambda*6*-thiomorpholin-4-ylmethyl)-phenyl]-amide]	–	–	–	* (* < 50 μM)	< 1000
Cc1ccc(NC(=O)c2ccc(N3CCOCC3)cc2)cc1-c1ccc(C(=O)NCc2cccc(Cl)c2)cc1 [Example 94, 2′-Methyl-5′-(4-morpholin-4-yl-benzoylamino)-biphenyl-4-carboxylic acid 3-chloro-benzylamide]	–	–	–	** (** > 50 μM)	1000 to 5000
Cc1ccc(NC(=O)C2CCCCC2)cc1-c1ccc(C(=O)Nc2ccc(CCN3CCS(=O)(=O)CC3)cc2)cc1 [Example 242, 5′-(Cyclohexanecarbonyl-amino)-2′-methyl-biphenyl-4-carboxylic acid {4-[2-(1,1-dioxo-1lambda*6*-thiomorpholin-4-yl)-ethyl]-phenyl}-amide]	–	–	–	* (* < 50 μM)	1000 to 5000
Cc1ccc(C(=O)Nc2ccc(N3CCOCC3)cc2)cc1-c1ccc(C(=O)Nc2ccc(CN3CCCC3)cc2)cc1 [Example 75, 6-Methyl-biphenyl-3,4′-dicarboxylic acid 3-[(4-morpholin-4-yl-phenyl)-amide] 4′-[(4-pyrrolidin-1-ylmethyl-phenyl)-amide]]	> 5000	* (key: * < 50 μM; ** > 50 μM)	–	–	–
Cc1ccc(NC(=O)c2ccc(F)cc2)cc1-c1ccc(C(=O)Nc2ccc(CN3CCS(=O)(=O)CC3)cc2)cc1 [Example 159, 5′-(4-Fluoro-benzoylamino)-2′-methyl-biphenyl-4-carboxylic acid [4-(1,1-dioxo-1lambda*6*-thiomorpholin-4-ylmethyl)-phenyl]-amide]	–	–	–	* (* < 50 μM)	< 1000
Cc1ccc(NC(=O)CC2CCCCC2)cc1-c1ccc(C(=O)Nc2ccc(CN3CCS(=O)(=O)CC3)cc2)cc1 [Example 165, 5′-(2-Cyclohexyl-acetylamino)-2′-methyl-biphenyl-4-carboxylic acid [4-(1,1-dioxo-1lambda*6*-thiomorpholin-4-ylmethyl)-phenyl]-amide]	–	–	–	* (* < 50 μM)	< 1000
Cc1cccc(CNC(=O)c2ccc(-c3cc(NC(=O)c4ccncc4)ccc3C)cc2)c1 [Example 215, N-[6-Methyl-4′-(3-methyl-benzylcarbamoyl)-biphenyl-3-yl]-isonicotinamide]	–	–	–	* (* < 50 μM)	> 5000
Cc1ccc(NC(=O)C2CCCCC2)cc1-c1ccc(C(=O)Nc2ccc(CN(C)C)cc2)cc1 [Example 222, 5′-(Cyclohexanecarbonyl-amino)-2′-methyl-biphenyl-4-carboxylic acid (4-dimethylaminomethyl-phenyl)-amide]	–	–	–	* (* < 50 μM)	1000 to 5000
Cc1ccc(NC(=O)C2CCC2)cc1-c1ccc(C(=O)Nc2ccc(CN3CCS(=O)(=O)CC3)cc2)cc1 [Example 195, 5′-(Cyclobutanecarbonyl-amino)-2′-methyl-biphenyl-4-carboxylic acid [4-(1,1-dioxo-1lambda*6*-thiomorpholin-4-ylmethyl)-phenyl]-amide]	–	–	–	* (* < 50 μM)	< 1000
Cc1ccc(C(=O)Nc2ccc(-n3cncn3)cc2)cc1-c1ccc(C(=O)Nc2ccc(CN3CCS(=O)(=O)CC3)cc2)cc1 [Example 139, 6-Methyl-biphenyl-3,4′-dicarboxylic acid 4′-{[4-(1,1-dioxo-1lambda*6*-thiomorpholin-4-ylmethyl)-phenyl]-amide} 3-[(4-[1,2,4]triazol-1-yl-phenyl)-amide]]	< 1000	* (key: * < 50 μM; ** > 50 μM)	–	–	–
Cc1cc(NC(=O)C2CC2)ccc1-c1cccc(C(=O)Nc2ccc(N3CCOCC3)cc2)c1 [Example 113, 4′-(Cyclopropanecarbonyl-amino)-2′-methyl-biphenyl-3-carboxylic acid (4-morpholin-4-yl-phenyl)-amide]	–	–	–	* (* < 50 μM)	> 5000
Cc1ccc(C(=O)Nc2ccc(N3CCOCC3)cc2)cc1-c1ccc(C(=O)Nc2cccc(C(=O)c3ccccc3)c2)cc1 [Example 19, 6-Methyl-biphenyl-3,4′-dicarboxylic acid 4′-[(3-benzoyl-phenyl)-amide] 3-[(4-morpholin-4-yl-phenyl)-amide]]	–	–	1000 to 5000	** (** > 50 μM)	–
O=C(Nc1ccc(CN2CCS(=O)(=O)CC2)cc1)c1ccc(-c2cccc(C(=O)Nc3ccc(N4CCOCC4)cc3)c2)cc1 [Example 120, Biphenyl-3,4′-dicarboxylic acid 4′-{[4-(1,1-dioxo-1lambda*6 *-thiomorpholin-4-ylmethyl)-phenyl]-amide} 3-[(4-morpholin-4-yl-phenyl)-amide]]	1000 to 5000	** (key: * < 50 μM; ** > 50 μM)	–	–	–
CS(=O)(=O)N1CCN(Cc2ccc(NC(=O)c3ccc(-c4cc(NC(=O)[C@@H]5CCN5C(=O)O)ccc4OC(F)(F)F)cc3)cc2)CC1 [Example 241, (S)-2-{4′-[4-(4-Methanesulfonyl-piperazin-1-ylmethyl)-phenylcarbamoyl]-6-trifluoromethoxy-biphenyl-3-ylcarbamoyl}-azetidine-1-carboxylic acid]	–	–	–	* (* < 50 μM)	< 1000
CCCS(=O)(=O)N1CCN(Cc2ccc(NC(=O)c3ccc(-c4cc(NC(=O)[C@H]5CCCCN5)ccc4OC(F)(F)F)cc3)cc2)CC1 [Example 234, (R)-Piperidine-2-carboxylic acid (4′-{4-[4-(propane-1-sulfonyl)-piperazin-1-ylmethyl]-phenylcarbamoyl}-6-trifluoromethoxy-biphenyl-3-yl)-amide]	–	–	–	* (* < 50 μM)	< 1000
